Here are results for six compounds from paper PMC5283680 (ACS chemical biology, 2016).

In brackets after ≈: the same amount, converted by molar mass. Like-named read-outs stand apart in the source and are kept apart here. Positions of bridges follow the written chain, without caps; N, C: chain ends. Non-standard residues stand in square brackets, D forms with d. Residues, ends and D or L forms follow the SMILES beside them. d(aIle) = CC[C@H](C)[C@@H](N)C(=O)O; dNMeF = CN[C@H](Cc1ccccc1)C(=O)O

The subject of assay [1] is four gram-positive bacteria. Briefly: MIC assays, summary over the four gram-positive bacteria. The format is cell-based. The settings on record: for MIC against the gram-positive bacteria studied: four gram-positive bacteria of Table 1.
The test system of the next assay is gram-positive bacteria. The settings on record: MIC assays; cited from earlier work.
For assay [2], the system named is Streptococcus salivarius ATCC 13419. The format is cell-based.
For assay [3], the system named is Escherichia coli ATCC 10798. The format is cell-based.
The test system of assay [4] is Enterococcus durans ATCC 6056. In kind it is cell-based.
Assay [5] has as its system Staphylococcus epidermidis ATCC 14990. In kind it is cell-based.
In assay [6] the test system is Bacillus subtilis ATCC 6051. Briefly: microbe, parasite or virus in culture. The format is cell-based.
The test system of the next assay is various Streptococcus. The following applies: cited from earlier work.
The subject of a further assay is E. coli. The following applies: cited from earlier work.
The mark [7] stands for this setting: Streptococcus salivarius ATCC 13419, homologues as TFA salts.
[8] abbreviates: Enterococcus durans ATCC 6056, homologues as TFA salts.
Setting [9] is: Staphylococcus epidermidis ATCC 14990, homologues as TFA salts.
Where [10] appears, read: Bacillus subtilis ATCC 6051, homologues as TFA salts.

For the compound `CC[C@H](C)[C@H](NC(=O)[C@@H](Cc1ccccc1)NC)C(=O)N[C@@H](CO)C(=O)N[C@H](CCC(N)=O)C(=O)N[C@@H](C(=O)N[C@H](C(=O)N[C@@H](CO)C(=O)N[C@H]1C(=O)N[C@@H](C)C(=O)N[C@@H](CCCNC(=N)N)C(=O)N[C@@H]([C@@H](C)CC)C(=O)O[C@H]1C)[C@@H](C)CC)[C@@H](C)CC` [Arg10-teixobactin], the “activity relative to teixobactin” value (in assay [1] (comparison of own MIC with original published values in related bacteria); in the assay on gram-positive bacteria) was “about an order of magnitude less active” throughout. The “MIC against the gram-positive bacteria studied” value in [1] is 1 to 4 µg/mL. In addition, the MIC in assay [2] (ATCC 13419) is 1 µg/mL (≈ 0.804 µM); in assay [3] it was over 32 µg/mL; in [4] (ATCC 6056), 4 µg/mL (≈ 3.21 µM); in assay [5] (ATCC 14990) it was 1 µg/mL (≈ 0.804 µM); in assay [6] (ATCC 6051) it was 2 µg/mL (≈ 1.61 µM).

Regarding `CC[C@H](C)[C@H](NC(=O)[C@@H](Cc1ccccc1)NC)C(=O)N[C@@H](CO)C(=O)N[C@H](CCC(N)=O)C(=O)N[C@@H](C(=O)N[C@H](C(=O)N[C@@H](CO)C(=O)N[C@H]1C(=O)N[C@@H](C)C(=O)N[C@@H](CCCCN)C(=O)N[C@@H]([C@@H](C)CC)C(=O)O[C@H]1C)[C@@H](C)CC)[C@@H](C)CC` [Lys10-teixobactin] (H-[dNMeF]IS[dQ][d(aIle)]IS[dT]AKI; ester 8-C (inferred); N-terminus assumed), in assay [1] (gram-positive bacteria, relative to Arg10-teixobactin), the “MIC values, times lower than Arg10-teixobactin” value is given as 2–4 times. The MIC was 0.5 µg/mL (≈ 0.411 µM) in assay [2] (ATCC 13419); over 32 µg/mL in [3]; 1 µg/mL (≈ 0.822 µM) in assay [4] (ATCC 6056); 0.25 µg/mL (≈ 0.206 µM) in [5] (ATCC 14990); 0.5 µg/mL (≈ 0.411 µM) in [6] (ATCC 6051).

Take `CN[C@H](CC(C)C)C(=O)N[C@H]1C(=O)N[C@@H](CC(N)=O)C(=O)N[C@H]2C(=O)N[C@H]3C(=O)N[C@H](C(=O)N[C@H](C(=O)O)c4cc(O)cc(O)c4-c4cc3ccc4O)[C@H](O)c3ccc(c(Cl)c3)Oc3cc2cc(c3O[C@@H]2O[C@H](CO)[C@@H](O)[C@H](O)[C@H]2O[C@H]2C[C@](C)(N)[C@H](O)[C@H](C)O2)Oc2ccc(cc2Cl)[C@H]1O` [vancomycin, reference compound]: in assay [6] (Bacillus subtilis, ATCC6051), the MIC came out at 1 µg/mL (≈ 0.69 µM).

For ent-Arg10-teixobactin, in assay [1] (gram-positive bacteria, MIC), the “activity relative to Arg10-teixobactin” value is reported as “comparable activity”. Further, the MIC was 1 µg/mL in [2] (setting [7]), 4 µg/mL in assay [4] (setting [8]), 2 µg/mL in [5] (setting [9]) and 2 µg/mL in assay [6] (setting [10]).

On to seco-Arg10-teixobactin, for which, in [1], the “MIC against the gram-positive bacteria studied” value was over 32 µg/mL. Also, the MIC in assay [2] (setting [7]), in assay [4] (setting [8]), in assay [5] (setting [9]) and in [6] (setting [10]) was over 32 µg/mL throughout.

teixobactin: the MIC was 0.02 to 0.15 µg/mL in the assay with various Streptococcus and 25 µg/mL in the assay with E. coli.
